14 compounds from ChEMBL document CHEMBL1133344, “SAR studies of 2-o-substituted-benzoyl- and 2-alkanoyl-cyclohexane-1,3-diones as inhibitors of 4-hydroxyphenylpyruvate dioxygenase” (Bioorg Med Chem Lett, 2000) can be followed below.

In general, IC50 refers to the point on the concentration scale where inhibition reaches its midpoint.

One assay deals with T1, 4-hydroxyphenylpyruvate dioxygenase (Sus scrofa, UniProt Q02110). Nature of the assay: In vitro inhibition of 4-hydroxyphenylpyruvate dioxygenase obtained from purified pig liver by enol-borate method.
T1 sequence (Q02110 whole entry): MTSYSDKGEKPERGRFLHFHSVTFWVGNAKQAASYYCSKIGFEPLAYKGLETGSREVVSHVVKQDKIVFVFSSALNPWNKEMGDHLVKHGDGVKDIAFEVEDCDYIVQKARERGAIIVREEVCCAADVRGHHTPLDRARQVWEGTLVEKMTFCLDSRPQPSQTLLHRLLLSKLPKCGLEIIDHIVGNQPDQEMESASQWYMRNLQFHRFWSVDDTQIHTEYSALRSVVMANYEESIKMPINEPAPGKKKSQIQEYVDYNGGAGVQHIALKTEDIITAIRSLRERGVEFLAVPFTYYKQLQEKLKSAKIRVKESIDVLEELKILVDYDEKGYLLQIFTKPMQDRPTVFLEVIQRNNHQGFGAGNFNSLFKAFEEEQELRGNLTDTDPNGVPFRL
The compound `O=C1CCCC(=O)C1C(=O)c1ccccc1` registered an IC50 of 11.2 µM.

The target in a further assay is T1, 4-hydroxyphenylpyruvate dioxygenase. Nature of the assay: Inhibition of 4-hydroxyphenylpyruvate dioxygenase of purified pig liver by enol-borate method.
For `CCC(=O)C1C(=O)CCCC1=O`, half-maximal inhibition (IC50) required 17.8 µM. Same read-out and setting: the figure for `Cc1ccccc1C(=O)C1C(=O)CCCC1=O` is 3.75 µM; for `O=C1CCCC(=O)C1C(=O)c1ccccc1C(F)(F)F` it is 0.25 µM.

In turn, `O=C1CCCC(=O)C1C(=O)C1CC1` had a half-inhibitory concentration (IC50) of 6 µM. Same read-out and setting: the figure for `CC(C)C(=O)C1C(=O)CCCC1=O` is 93.3 µM; for `O=C1CCCC(=O)C1C(=O)C1CCCCC1` it is 365 µM. Still for that read-out and setting: the figure for `COc1ccccc1C(=O)C1C(=O)CCCC1=O` is 11.7 µM; for `O=C1CCCC(=O)C1C(=O)c1ccc(C(F)(F)F)cc1[N+](=O)[O-]` [NITISINONE] it is 0.04 µM.

For `O=C1CCCC(=O)C1C(=O)c1ccccc1I`, 0.76 µM corresponded to half-maximal inhibition (IC50). As for `CC(=O)C1C(=O)CCCC1=O`, half-maximal inhibition (IC50) required 11.2 µM. Still for that read-out and setting: the figure for `O=C1CCCC(=O)C1C(=O)c1ccccc1Br` is 0.56 µM. On the same count and under the same terms, the figure for `O=C1CCCC(=O)C1C(=O)c1ccccc1Cl` is 0.5 µM. `O=C1CCCC(=O)C1C(=O)c1ccccc1[N+](=O)[O-]`: the IC50 was 0.16 µM.
